Results on three compounds are retold here after patent publication US20040248860A1, “Use of selective progesterone receptor modulators for the treatment of androgen deficiency” (priority 2002, published 2004).

For assay [1], the system named is total testosterone levels. Put plainly: Phase II study of J867: total testosterone levels over 12 weeks. In kind it is in vivo, human (female subjects). Particulars: for mean testosterone concentration increase over the treatment period: female subjects, 12 week treatment, change from baseline. The method, then: (§1) The effect of SPRMs on testosterone levels and SHBG levels was studied using various doses of J867 over three months. The study was a phase II, multi-center, randomized, double blind, parallel group study of J867 at doses of 5 mg, 10 mg, and 25 mg once a day (QD)compared to placebo. Approximately 120 female subjects between the ages of 18 and 49 were enrolled in the study and randomly assigned to one of the four dosing groups above. During the 12 week study, testosterone and SHBG were measured at screening visits during weeks 2, 4, 8, and 12 of the study.
FIG. 1 is a graph showing total testosterone levels as a function of time during the study. […] Testosterone concentrations were relatively constant for the group receiving placebo. […] Over the treatment period, the mean testosterone concentrations for the 5 mg QD group increased approximately 7-15 ng/dL; the mean increase for the 10 mg QD group was approximately 15-21 ng/dL; and the mean concentrations observed following treatment with 25 mg QD increased approximately 16-25 ng/dL.

The test system of assay [2] is sex hormone-binding globulin (SHBG). Put plainly: Phase II study of J867: SHBG levels over 12 weeks. In kind it is in vivo, human (female subjects). As to conditions: 12 week treatment. Here is the method: as §1
SHBG levels were also measured at weeks 2, 4, 8, and 12 of the study.

For the next assay, the target named is T1, progesterone receptor (Oryctolagus cuniculus, UniProt P06186).
T1 construct: effects of compounds at the progesterone receptor using a rabbit model; from tissue; host or cells: live rabbit (in vivo)
T1 sequence (P06186 1-930): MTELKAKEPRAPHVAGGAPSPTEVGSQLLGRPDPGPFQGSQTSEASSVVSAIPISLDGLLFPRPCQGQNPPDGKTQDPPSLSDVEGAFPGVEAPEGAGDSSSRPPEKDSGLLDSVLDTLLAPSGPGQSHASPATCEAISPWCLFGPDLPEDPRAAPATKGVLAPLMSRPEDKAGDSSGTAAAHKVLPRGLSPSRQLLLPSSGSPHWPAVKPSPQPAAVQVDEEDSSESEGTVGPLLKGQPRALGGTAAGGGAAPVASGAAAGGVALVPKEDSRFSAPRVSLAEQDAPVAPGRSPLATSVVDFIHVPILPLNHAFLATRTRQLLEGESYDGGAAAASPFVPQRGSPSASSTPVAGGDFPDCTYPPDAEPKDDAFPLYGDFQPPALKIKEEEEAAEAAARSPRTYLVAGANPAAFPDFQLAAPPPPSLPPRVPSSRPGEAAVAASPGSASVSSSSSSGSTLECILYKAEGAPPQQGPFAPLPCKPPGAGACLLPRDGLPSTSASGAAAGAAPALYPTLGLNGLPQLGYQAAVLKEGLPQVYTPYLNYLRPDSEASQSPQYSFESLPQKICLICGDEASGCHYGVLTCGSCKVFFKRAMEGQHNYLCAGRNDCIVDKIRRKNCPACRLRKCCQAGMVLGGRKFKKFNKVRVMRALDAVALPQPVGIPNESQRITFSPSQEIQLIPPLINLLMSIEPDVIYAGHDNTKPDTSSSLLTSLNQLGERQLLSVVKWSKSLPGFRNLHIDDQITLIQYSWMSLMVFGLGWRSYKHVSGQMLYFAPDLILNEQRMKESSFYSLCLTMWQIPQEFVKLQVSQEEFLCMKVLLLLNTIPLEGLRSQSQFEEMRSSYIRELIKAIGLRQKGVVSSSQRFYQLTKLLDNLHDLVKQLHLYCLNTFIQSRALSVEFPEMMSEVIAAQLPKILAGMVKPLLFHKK
As to conditions: rabbit model, scale of 0-4; cited from earlier work.

In the case of `COC[C@]1(OC)CC[C@H]2[C@@H]3CCC4=CC(=O)CCC4=C3[C@@H](c3ccc(/C=N/O)cc3)C[C@@]21C` [J867, [4-[17β-Methoxy-17α-(methoxymethyl)-3-oxoestra-4,9-dien-11β-yl]benzaldehyd-(1E)-oxim]], the “mean testosterone concentration increase over the treatment period” value in assay [1] (5 mg QD) was 7 to 15 ng/dL; in assay [1] (10 mg QD) it was 15 to 21 ng/dL; in assay [1] (25 mg QD) it was 16 to 25 ng/dL. The “total testosterone levels (FIG. 1)” value in assay [1] (all doses (5, 10, 25 mg QD) compared to placebo) is “testosterone levels increased with all doses”. In addition, the “visit with largest mean increase of testosterone from baseline” value in assay [1] (all three dose groups (5, 10, 25 mg QD)) turned out to be 2 week. Moreover, the “testosterone concentrations at the end of the study” value in assay [1] (all three dose groups, week 12) is “still elevated above baseline”. Besides, the entries for the “mean level of SHBG during treatment” value in assay [2] (5 mg QD), in assay [2] (10 mg QD) and in assay [2] (25 mg QD) were “remained relatively constant”, “decreased from baseline” and “decreased from baseline”, respectively.

Consider `CC#C[C@]1(O)CC[C@H]2[C@@H]3CCC4=CC(=O)CCC4=C3[C@@H](c3ccc(N(C)C)cc3)C[C@@]21C` [RU486, mifepristone], for which, at progesterone receptor, the McPhail score result was “less than 0.5”.

Take `CC(=O)[C@H]1CC[C@H]2[C@@H]3CCC4=CC(=O)CC[C@]4(C)[C@H]3CC[C@]12C` [progesterone]: at progesterone receptor, the McPhail score is given as 4.
